Reference: US10154994B2, “Ophthalmic formulations of tyrosine kinase inhibitors, methods of use thereof, and preparation methods thereof” (Allgenesis Biotherapeutics Inc., priority 2015, dated 2018)
Where a name gives a salt, the structure may show the parent alone. Read-outs that look alike come from different tables or passages of the source.

System: cornea suture-induced neovascularization
Details: for CNV Branching / CNV Length / CNV Area (~%): 6 eyes; for CNV Area (~%): percentage estimate of involved corneal circumference
Description: For this study, New Zealand white rabbits at approximately 5 months old with no visible signs of ocular defects were selected. Suture placement was performed on Day 1. Prior to surgery, the right eye of each animal was dilated using a mydriatic agent (1% tropicamide), and the conjunctiva was flushed with approximately 10 mL benzalkonium chloride (Zephiran™) diluted in sterile water, U.S.P. to 1:10,000 (v/v). Saline (0.9%) was also used to flush the eye along with benzalkonium chloride. Animals were anesthetized with isoflurane/oxygen during the procedure. Hydration of the eyes was maintained by irrigation with saline solution, as needed. The procedure was conducted under a dissecting or surgical microscope. The cornea of the right eye was exposed using an eyelid speculum. The central corneal area was appropriately marked as considered necessary by the surgeon. […] The outer point of suture placement was chosen near the limbus (1-2 mm), and the inner suture point was chosen near the corneal center, equidistant from the limbus, to obtain standardized angiogenic responses. The left eye remained untreated.
The study design is shown below in Table 7:
Dose formulations were administered by subconjunctival injection to the sutured right eye of each animal of the Avastin control group (5 mg) on Days 1 and 7, at a dose volume of 200 μL/dose immediately post suture placement. Dose formulations were given three times daily (TID) for the group administered with suspension vehicle, 0.3% Axitinib, 0.3% Nintedanib Ethanesulfonate, or 0.3% Sorafenib Tosylate for a duration of 14 days. […] The dosing volume was one 35 μL drop per dose. After the dose was administered, the upper and lower eyelids were gently held together to prevent the loss of material and to distribute the dose across the eye.
Ocular imaging and neovascularization assessments were performed once pre-treatment, and also once on Days 7 and 14. A pre-anesthetic cocktail of Ketamine (15 mg/kg) and Dexmedetomidine (0.25 mg/kg) was administered subcutaneously, and the animals were maintained with isoflurane/oxygen mix prior to and during the procedure. Still images of the cornea were taken from both eyes (from the center of each eye, nasally and temporally). Images were evaluated qualitatively and quantitatively to assess the degree of corneal neovascularization (CNV), and to determine the area affected by CNV. The length of the vessel incursion was measured from the limbus to the distal end of the encroaching CNV using a digital micrometer (in millimeters) for each selected image. Qualitative assessments included the percentage estimate of involved corneal circumference (using multiple images as necessary), and vessel branching.

[1] = topical TID for 14 days, study conclusion

Compound | corneal neovascularization observed (Day 7) | efficacy compared with Avastin (Day 7) | CNV Branching (Day 7) | CNV Length (Day 7) | CNV Area (~%) (Day 7) | corneal neovascularization observed (Day 14) | CNV Branching (Day 14) | efficacy compared with Avastin (vessel length, surface area and vessel branching; words) (Day 15) | tolerability in the CNV study (rabbit, in vivo) | efficacy versus Avastin in preventing or slowing CNV progression (study conclusion) | efficacy in preventing or slowing CNV progression [1] | corneal neovascularization observed (Day 7 and Day 14) | CNV Length (Day 14) | CNV Area (~%) (Day 14) | CNV Branching (Pre) | CNV Length (Pre) | CNV Area (~%) (Pre) | tolerability in the CNV study (topical TID for 14 days)
COC(=O)c1ccc2c(c1)NC(=O)/C2=C(\Nc1ccc(N(C)C(=O)CN2CCN(C)CC2)cc1)c1ccccc1 [Nintedanib Ethanesulfonate] | not observed | comparable to one given Avastin | very slight to moderate | approximately 0.5 mm | ~20% | sparse | no branching | slightly more efficacious | well-tolerated | more efficacious, or at least comparable to Avastin | efficacious in preventing or slowing CNV progression | – | – | – | – | – | – | –
CNC(=O)c1cc(Oc2ccc(NC(=O)Nc3ccc(Cl)c(C(F)(F)F)c3)cc2)ccn1 [Sorafenib Tosylate] | – | – | – | – | – | – | – | – | – | – | – | Slight corneal neovascularization | – | – | – | – | – | –
Avastin: active control, 5 mg/eye by subconjunctival injection | – | – | 0 | 0 mm | 0% | minimal CNV | 1 | – | – | – | – | – | 0.45 mm | 13% | 0 | 0 mm | 0% | –
CNC(=O)c1ccccc1Sc1ccc2c(/C=C/c3ccccn3)n[nH]c2c1 [Axitinib] | not observed | – | very slight to moderate | approximately 0.5 mm | ~20% | – | – | – | – | – | efficacious in preventing or slowing CNV progression | – | – | – | – | – | – | well-tolerated
